Assay results taken from patent US20250352587A1, “PROBIOTIC AND USE THEREOF” (priority 2023, published 2025).
In brackets after ≈: the same amount, converted by molar mass. Where two headings read alike, the source gives them in different places.

Columns and labels:
Bbifi-1 = assay: Antibiotic susceptibility test, broth dilution MIC; format: cell-based, Bifidobacterium bifidum; conditions: for MIC: Bifidobacterium bifidum, read-out: MIC against Bbifi-1
Experimental: (§1) According to the requirements for antibiotic susceptibility tests of anaerobic bacteria in “Technical specification on antimicrobial susceptibility tests” (Standard No. WS/T 639-2018) of the People's Republic of China Health Industry Standard, the susceptibility of the strains to antibiotics was determined by a broth dilution method, and the MIC values were recorded.
(§2) 0.1 mL of the prepared 5 bacterial suspensions were sequentially pipetted into 96-well plates containing equal volumes of prepared antibacterial drugs, such that the final concentration of the inoculated bacteria was 5×10^5 CFU/mL, and the drug concentrations were 256 μg/mL, 128 μg/mL, 64 μg/mL, 32 μg/mL, 16 μg/mL, 8 μg/mL, 4 μg/mL, 2 μg/mL, 1 μg/mL, 0.5 μg/mL, 0.25 μg/mL, and 0.125 μg/mL, respectively. Incubation: The above 96-well plates were anaerobically incubated in an incubator at 37° C. for 46-48 h.

Lsali-1 = assay: Antibiotic susceptibility test, broth dilution MIC; format: cell-based, Lactobacillus salivarius; conditions: anaerobic, 37° C., 46-48 h; for MIC: Ligilactobacillus salivarius, read-out: MIC against Lsali-1
Experimental: as §1, §2

Pdist-1 = assay: Antibiotic susceptibility test, broth dilution MIC; format: cell-based, Parabacteroides distasonis; conditions: for MIC: Parabacteroides distasonis, read-out: MIC against Pdist-1
Experimental: as §1, §2

Lferm-1 = assay: Antibiotic susceptibility test, broth dilution MIC; format: cell-based, Limosilactobacillus fermentum; conditions: for MIC: Limosilactobacillus fermentum, read-out: MIC against Lferm-1
Experimental: as §1, §2

Eaviu-1 = assay: Antibiotic susceptibility test, broth dilution MIC; format: cell-based, Enterococcus avium; conditions: for MIC: Enterococcus avium, read-out: MIC against Eaviu-1
Experimental: as §1, §2

colon injury = assay: Colon histopathology (HE staining) in mice with 5-FU-induced diarrhea; format: in vivo; conditions: panels 1A and 2A in FIG. 13
Experimental: After the animal experiment, the middle colon of the mice was collected and fixed in 4% paraformaldehyde for 24 h. The fixed colon tissues were sequentially dehydrated, transparentized, waxed, and embedded. The embedded paraffin blocks of colon tissues were sectioned at a thickness of 5 μm, followed by spreading and baking, and the dried sections were subjected to conventional HE staining. The pathological changes were observed under an optical microscope. Pathological scoring was performed according to Table 6 below, and the total pathological scores (the sum of the scores of all indices) were calculated.

[1] = broth dilution, anaerobic, 37° C., 46-48 h

| Compound | MIC (Bbifi-1; [1]) [µg/mL] | MIC (Lsali-1) [µg/mL] | MIC (Pdist-1; [1]) [µg/mL] | MIC (Lferm-1; [1]) [µg/mL] | MIC (Eaviu-1; [1]) [µg/mL] | further results |
| --- | --- | --- | --- | --- | --- | --- |
| CC1(C)S[C@@H]2[C@H](NC(=O)[C@H](N)c3ccccc3)C(=O)N2[C@H]1C(=O)O [Ampicillin] | 0.25 (≈ 0.715 µM) | 4 (≈ 11.4 µM) | 8 (≈ 22.9 µM) | 0.5 (≈ 1.43 µM) | 4 (≈ 11.4 µM) |  |
| CO/N=C(\C(=O)N[C@@H]1C(=O)N2C(C(=O)O)=C(CSc3nc(=O)c(=O)[nH]n3C)CS[C@H]12)c1csc(N)n1 [Ceftriaxone] |  |  | 16 (≈ 28.9 µM) |  |  |  |
| O=C(N[C@H](CO)[C@H](O)c1ccc([N+](=O)[O-])cc1)C(Cl)Cl [Chloramphenicol] | 8 (≈ 24.8 µM) | 256 (≈ 792 µM) |  | 0.125 (≈ 0.387 µM) | 128 (≈ 396 µM) |  |
| CCC[C@@H]1C[C@@H](C(=O)N[C@@H]([C@H]2O[C@H](SC)[C@H](O)[C@@H](O)[C@H]2O)[C@H](C)Cl)N(C)C1 [Clindamycin] | 1 (≈ 2.35 µM) | 8 (≈ 18.8 µM) | 16 (≈ 37.6 µM) | < 0.125 | 4 (≈ 9.41 µM) |  |
| CC[C@H]1OC(=O)[C@H](C)[C@@H](O[C@H]2C[C@@](C)(OC)[C@@H](O)[C@H](C)O2)[C@H](C)[C@@H](O[C@@H]2O[C@H](C)C[C@H](N(C)C)[C@H]2O)[C@](C)(O)C[C@@H](C)C(=O)[C@H](C)[C@@H](O)[C@]1(C)O [Erythromycin] | 0.125 (≈ 0.17 µM) | 0.125 (≈ 0.17 µM) | 32 (≈ 43.6 µM) | < 0.125 | 0.25 (≈ 0.341 µM) |  |
| C[C@@H](O)[C@H]1C(=O)N2C(C(=O)O)=C(SCCN=CN)C[C@H]12 [Imipenem] |  |  | 16 (≈ 53.4 µM) |  |  |  |
| NC[C@H]1O[C@H](O[C@H]2[C@H](O)[C@@H](O[C@H]3O[C@H](CO)[C@@H](O)[C@H](N)[C@H]3O)[C@H](N)C[C@@H]2N)[C@H](O)[C@@H](O)[C@@H]1O [Kanamycin] |  | 256 (≈ 528 µM) |  |  |  |  |
| C[C@H]1COc2c(N3CCN(C)CC3)c(F)cc3c(=O)c(C(=O)O)cn1c23 [Levofloxacin] |  |  | 8 (≈ 22.1 µM) |  |  |  |
| CO[C@H]1/C=C/O[C@@]2(C)Oc3c(C)c(O)c4c(O)c(c(/C=N/N5CCN(C)CC5)c(O)c4c3C2=O)NC(=O)/C(C)=C\C=C\[C@H](C)[C@H](O)[C@@H](C)[C@@H](O)[C@@H](C)[C@H](OC(C)=O)[C@@H]1C [Rifampicin] |  |  | < 0.125 |  |  |  |
| [H]/N=C(/N)N[C@H]1[C@H](O)[C@@H](O)[C@H](O[C@@H]2O[C@@H](C)[C@](O)(C=O)[C@H]2O[C@@H]2O[C@@H](CO)[C@H](O)[C@@H](O)[C@@H]2NC)[C@@H](N/C(N)=N\[H])[C@@H]1O [Streptomycin] | 128 (≈ 220 µM) | 128 (≈ 220 µM) | < 0.125 | 0.125 (≈ 0.215 µM) | 128 (≈ 220 µM) |  |
| CN(C)[C@@H]1C(O)=C(C(N)=O)C(=O)[C@@]2(O)C(O)=C3C(=O)c4c(O)cccc4[C@@](C)(O)[C@H]3C[C@@H]12 [Tetracycline] | 0.125 (≈ 0.281 µM) | 0.5 (≈ 1.13 µM) | 8 (≈ 18 µM) | < 0.125 | 0.5 (≈ 1.13 µM) |  |
| CN[C@H](CC(C)C)C(=O)N[C@H]1C(=O)N[C@@H](CC(N)=O)C(=O)N[C@H]2C(=O)N[C@H]3C(=O)N[C@H](C(=O)N[C@H](C(=O)O)c4cc(O)cc(O)c4-c4cc3ccc4O)[C@H](O)c3ccc(c(Cl)c3)Oc3cc2cc(c3O[C@@H]2O[C@H](CO)[C@@H](O)[C@H](O)[C@H]2O[C@H]2C[C@](C)(N)[C@H](O)[C@H](C)O2)Oc2ccc(cc2Cl)[C@H]1O [Vancomycin] |  |  |  |  |  | MIC (Bbifi-1): 1 µg/mL (≈ 0.69 µM); MIC (Pdist-1): 8 µg/mL (≈ 5.52 µM); MIC (Lferm-1): 0.125 µg/mL (≈ 0.0863 µM); MIC (Eaviu-1): 2 µg/mL (≈ 1.38 µM) |
| CN(C)C(=O)C(CCN1CCC(O)(c2ccc(Cl)cc2)CC1)(c1ccccc1)c1ccccc1 [loperamide] |  |  |  |  |  | colon histopathological observation (HE staining) (colon injury): the colon structure was relatively intact, mucosal epithelial cells showed no significant necrosis, the number of goblet cells was significantly increased, and only a small amount of lymphocyte infiltration was observed in the lamina propria |
| Gentamicin |  |  |  |  |  | MIC against Bbifi-1 (Bbifi-1; [1]): 8 µg/mL; MIC against Lsali-1 (Lsali-1): 16 µg/mL; MIC against Pdist-1 (Pdist-1; [1]): <0.125 µg/mL; MIC against Lferm-1 (Lferm-1; [1]): 0.125 µg/mL; MIC against Eaviu-1 (Eaviu-1; [1]): 8 µg/mL |
| Penicillin |  |  |  |  |  | MIC against Pdist-1 (Pdist-1; [1]): 8 µg/mL |
